Results on 26 molecules are retold here after US8940769B2, “Biaryl benzoimidazole derivatives and pharmaceutical composition comprising the same” (Daewoong Pharmaceutical Co., Ltd., priority 2006, dated 2015).

One experiment deals with T1, human vanilloid receptor VR-1 (hVR1) (Homo sapiens, UniProt Q8NER1).
T1 construct: expressed in transfected cells; host or cells: HEK293 Tet-on cells (hVR1-HEK293), expression induced with doxycycline
T1 sequence (Q8NER1 whole entry): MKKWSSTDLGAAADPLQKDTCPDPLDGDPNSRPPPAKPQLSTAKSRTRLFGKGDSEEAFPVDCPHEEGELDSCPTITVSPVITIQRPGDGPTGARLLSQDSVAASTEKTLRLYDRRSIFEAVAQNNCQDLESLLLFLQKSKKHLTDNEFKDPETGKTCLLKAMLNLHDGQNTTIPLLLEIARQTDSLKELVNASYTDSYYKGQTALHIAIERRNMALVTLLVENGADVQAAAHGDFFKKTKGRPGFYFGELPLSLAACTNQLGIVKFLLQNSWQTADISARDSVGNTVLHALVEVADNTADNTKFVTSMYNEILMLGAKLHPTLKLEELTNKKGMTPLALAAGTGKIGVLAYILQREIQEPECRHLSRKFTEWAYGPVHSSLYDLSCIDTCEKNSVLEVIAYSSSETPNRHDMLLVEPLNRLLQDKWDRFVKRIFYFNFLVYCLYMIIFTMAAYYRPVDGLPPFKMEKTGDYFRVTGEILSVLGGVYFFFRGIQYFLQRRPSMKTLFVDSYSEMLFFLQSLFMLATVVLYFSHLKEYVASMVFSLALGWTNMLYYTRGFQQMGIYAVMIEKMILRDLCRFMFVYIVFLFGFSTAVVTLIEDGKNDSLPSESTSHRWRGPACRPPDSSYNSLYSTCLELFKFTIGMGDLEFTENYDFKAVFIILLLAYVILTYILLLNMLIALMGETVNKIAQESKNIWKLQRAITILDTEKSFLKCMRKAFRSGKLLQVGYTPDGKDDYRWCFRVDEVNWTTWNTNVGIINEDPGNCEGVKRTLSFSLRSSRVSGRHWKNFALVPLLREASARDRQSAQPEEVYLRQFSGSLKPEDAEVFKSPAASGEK
Briefly: Calcium influx test of vanilloid receptor (capsaicin-induced, Fluo-3/AM, hVR1-HEK293 cells). Type of experiment: cell-based. Particulars: calcium influx induced by 1 μM capsaicin, read-out: Inhibitory effect IC50 (nM) on calcium influx. As for the experimental part: In order to measure an activity of the biaryl benzoimidazole derivative of the invention as an antagonist, a calcium influx test was performed.
An hVR1-HEK293 cell line is a cell line, in which a Human Embryonic Kidney (HEK) 293 Tet-on cell is transformed with a human vanilloid-1 gene (pTRE2hyg-hVR1, 7.8 kb). The cell line can regulate a VR-1 expression, depending on the administration of a tetracycline analogue, doxycycline. At two days before the calcium influx test, the cell line was cultured in media containing doxycycline to induce the VR-1 expression, and then used. First, the hVR1-HEK293 cells were cultured in T75 flasks to have a density of about 80%, and then detached from the bottom of the flasks by using trypsin. The detached cells were centrifuged and collected. Then, the cells were suspended in media containing 1 μg/mL doxycycline, and diluted to have a concentration of 2×10^5 to 4×10^5 cells/mL. 100 μL of the suspended cells were added to each well of 96-well black plate, cultured at 37° C. and 5% CO2 cell incubator for two days, and then used in the calcium influx test.
The compound was dissolved in dimethyl sulfoxide (DMSO), and then used for the calcium influx test.
In order to measure the calcium influx […], the cells were cultured in a solution containing Fluo-3/AM, which is a calcium indicator, at 37° C. for 90 minutes, so as to be permeated by a fluorescent dye. […] 193 μL D-PBS were added to each well, and then the compound was added thereto in various concentrations. To measure an activity as an antagonist, the cells were treated with 1 μM capsaicin to stimulate the calcium influx. The inhibitory effect of the compound when calcium influx was induced by 1 μM capsaicin was measured depending on its concentration using a fluorescence spectrometer, and the obtained data were substituted into a hill equation to analyze the values.
The inhibitory effect on calcium influx was measured with a single concentration of the compounds of the invention (200 nM), and the result thereof are shown in Table 2.
Take `O=Cc1cnc(-c2ccc(-c3nc4ccc(C(F)(F)F)cc4[nH]3)cc2)c(Cl)c1` [Compound 58, 5-chloro-6-[4-(6-trifluoromethyl-1H-benzoimidazol-2-yl)-phenyl]-pyridine-3-carbaldehyde]: the IC50 (as a rule, the concentration at which inhibition is half-maximal) was 94.5 nM.
The same measure, in the same setting: in the case of `OCc1cnc(-c2ccc(-c3nc4ccc(Br)cc4[nH]3)cc2)c(Cl)c1` [Compound 30, {6-[4-(6-bromo-1H-benzoimidazol-2-yl)-phenyl]-5-chloro-pyridin-3-yl}-methanol] it was 171 nM; in that of `OCc1cnc(-c2ccc(-c3nc4ccc(C(F)(F)F)cc4[nH]3)nc2)c(Cl)c1` [Compound 89, [3-chloro-6′-(6-trifluoromethyl-1H-benzoimidazol-2-yl)-[2,3′]bipyridinyl-5-yl]-methanol], 338 nM.

The same experiment, now with this note: single concentration of compound 200 nM, 1 μM capsaicin.
On to `CC(=O)OCc1cnc(-c2ccc(-c3nc4ncc(Br)cc4[nH]3)cc2)c(Cl)c1` [Compound 56, acetic acid 6-[4-(6-bromo-1H-imidazo[4,5-b]pyridin-2-yl)-phenyl]-5-chloro-pyridin-3-yl methyl ester], for which the “Inhibitory effect (%) on calcium influx” value came out at 6.5%.

Still in this experiment, the particulars now being: single concentration of compound 200 nM, 1 μM capsaicin, read-out: Inhibitory effect (%) on calcium influx.
As for `O=Cc1cnc(-c2ccc(-c3nc4ccc(C(F)(F)F)cc4[nH]3)cc2)c(Cl)c1` [Compound 58, 5-chloro-6-[4-(6-trifluoromethyl-1H-benzoimidazol-2-yl)-phenyl]-pyridine-3-carbaldehyde], the inhibition at 0.2 µM is 39.1%.
Same read-out and setting: as for `COC(=O)c1cnc(-c2ccc(-c3nc4ccc(Br)cc4[nH]3)nc2)c(Cl)c1` [Compound 75, 6′-(6-bromo-1H-benzoimidazol-2-yl)-3-chloro-[2,3′]bipyridinyl-5-carboxylic acid methyl ester], the figure is 45.3%; as for `C=Cc1cnc(-c2ccc(-c3nc4c(Br)cc(C(F)(F)F)cc4[nH]3)nc2)c(Cl)c1` [Compound 70, 6′-(4-bromo-6-trifluoromethyl-1H-benzoimidazol-2-yl)-3-chloro-5-vinyl-[2,3′]bipyridinyl], 0%.
The same measure, in the same setting: in the case of `C=Cc1cnc(-c2ccc(-c3nc4ccc(C(F)(F)F)cc4[nH]3)nc2)c(Cl)c1` [Compound 66, 3-chloro-6′-(6-trifluoromethyl-1H-benzoimidazol-2-yl)-5-vinyl-[2,3′]bipyridinyl] it was 0.2%; in that of `OCc1cnc(-c2ccc(-c3nc4ncc(Br)cc4[nH]3)nc2)c(Cl)c1` [Compound 92, [6′-(6-bromo-1H-imidazo[4,5-b]pyridin-2-yl)-3-chloro-[2,3′]bipyridinyl-5-yl]-methanol], 7.3%; in that of `CCNC(=O)c1cnc(-c2ccc(-c3nc4ncc(Br)cc4[nH]3)nc2)c(Cl)c1` [Compound 100, 6′-(6-bromo-1H-imidazo[4,5-b]pyridin-2-yl)-3-chloro-[2,3′]bipyridinyl-5-carboxylic acid ethyl amide], 13%.
The same measure, in the same setting: in the case of `COC(=O)c1cnc(-c2ccc(-c3nc4c(Br)cc(C(F)(F)F)cc4[nH]3)cc2)c(Cl)c1` [Compound 52, 6-[4-(4-bromo-6-trifluoromethyl-1H-benzoimidazol-2-yl)-phenyl]-5-chloro-nicotinic acid methyl ester] it was 20%.
In the case of `COC(=O)c1cnc(-c2ccc(-c3nc4ccc(N5CCOCC5)cc4[nH]3)nc2)c(Cl)c1` [Compound 71, 3-chloro-6′-(6-morpholin-4-yl-1H-benzoimidazol-2-yl)-[2,3′]bipyridinyl-5-carboxylic acid methyl ester], the inhibition at 0.2 µM was found to be 7.1%.
For the molecule `OCc1cnc(-c2ccc(-c3nc4ccc(Br)cc4[nH]3)cc2)c(Cl)c1` [Compound 30, {6-[4-(6-bromo-1H-benzoimidazol-2-yl)-phenyl]-5-chloro-pyridin-3-yl}-methanol], the inhibition at 0.2 µM is 27.8%.
As to `CCNC(=O)c1cnc(-c2ccc(-c3nc4c(Br)cc(Br)cc4[nH]3)nc2)c(Cl)c1` [Compound 102, 3-chloro-6′-(4,6-dibromo-1H-benzoimidazol-2-yl)-[2,3′]bipyridinyl-5-carboxylic acid ethyl amide], the inhibition at 0.2 µM was found to be 13.2%.
On the same count and under the same terms, as for `C=Cc1cnc(-c2ccc(-c3nc4ccc(Cl)cc4[nH]3)cc2)c(Cl)c1` [Compound 42, 6-chloro-2-[4-(3-chloro-5-vinyl-pyridin-2-yl)-phenyl]-1H-benzoimidazole], the figure is 0.9%; as for `CCNC(=O)c1cnc(-c2ccc(-c3nc4ccc(C(F)(F)F)cc4[nH]3)cc2)c(Cl)c1` [Compound 61, 5-chloro-N-ethyl-6-[4-(6-trifluoromethyl-1H-benzoimidazol-2-yl)-phenyl]-nicotinamide], 23.4%; as for `CCNC(=O)c1cnc(-c2ccc(-c3nc4ccc(C(C)(C)C)cc4[nH]3)nc2)c(Cl)c1` [Compound 98, 6′-(6-tert-butyl-1H-benzoimidazol-2-yl)-3-chloro-[2,3′]bipyridinyl-5-carboxylic acid ethyl amide], 13.2%.
On the same count and under the same terms, as for `CCNC(=O)c1cnc(-c2ccc(-c3nc4ccc(Br)cc4[nH]3)nc2)c(Cl)c1` [Compound 99, 6′-(6-bromo-1H-benzoimidazol-2-yl)-3-chloro-[2,3′]bipyridinyl-5-carboxylic acid ethyl amide], the figure is 17.5%; as for `Clc1cc(CBr)cnc1-c1ccc(-c2nc3ccc(Br)cc3[nH]2)cc1` [Compound 36, 6-bromo-2-[4-(5-bromomethyl-3-chloro-pyridin-2-yl)-phenyl]-1H-benzoimidazole], 9.6%; as for `C=Cc1cnc(-c2ccc(-c3nc4ccc(Cl)cc4[nH]3)nc2)c(Cl)c1` [Compound 69, 3-chloro-6′-(6-chloro-1H-benzoimidazol-2-yl)-5-vinyl-[2,3′]bipyridinyl], 11.3%.
Same read-out and setting: in the case of `O=C(O)c1cnc(-c2ccc(-c3nc4ncc(Br)cc4[nH]3)nc2)c(Cl)c1` [Compound 84, 6′-(6-bromo-1H-imidazo[4,5-b]pyridin-2-yl)-3-chloro-[2,3′]bipyridinyl-5-carboxylic acid] it was 6.3%.
Take `O=C(O)c1cnc(-c2ccc(-c3nc4ccc(C(F)(F)F)cc4[nH]3)cc2)c(Cl)c1` [Compound 43, 5-chloro-6-[4-(6-trifluoromethyl-1H-benzoimidazol-2-yl)-phenyl]-nicotinic acid]: the inhibition at 0.2 µM is -3.1%.
For the molecule `OCc1cnc(-c2ccc(-c3nc4ccc(C(F)(F)F)cc4[nH]3)nc2)c(Cl)c1` [Compound 89, [3-chloro-6′-(6-trifluoromethyl-1H-benzoimidazol-2-yl)-[2,3′]bipyridinyl-5-yl]-methanol], the inhibition at 0.2 µM was 30%.
For the molecule `COC(=O)c1cnc(-c2ccc(-c3nc4c(Br)cc(Br)cc4[nH]3)nc2)c(Cl)c1` [Compound 78, 3-chloro-6′-(4,6-dibromo-1H-benzoimidazol-2-yl)-[2,3′]bipyridinyl-5-carboxylic acid methyl ester], the inhibition at 0.2 µM came to 4.1%.
Same read-out and setting: as for `CCNC(=O)c1cnc(-c2ccc(-c3nc4c(Br)cc(C(F)(F)F)cc4[nH]3)cc2)c(Cl)c1` [Compound 65, 6-[4-(4-bromo-6-trifluoromethyl-1H-benzoimidazol-2-yl)-phenyl]-5-chloro-N-ethyl-nicotinamide], the figure is 30.9%.
Still for that read-out and setting: as for `CCNC(=O)c1cnc(-c2ccc(-c3nc4ncc(Br)cc4[nH]3)cc2)c(Cl)c1` [Compound 64, 6-[4-(6-bromo-1H-imidazo[4,5-b]pyridin-2-yl)-phenyl]-5-chloro-N-ethyl-nicotinamide], the figure is 11.1%; as for `O=C(O)c1cnc(-c2ccc(-c3nc4ccc(Br)cc4[nH]3)cc2)c(Cl)c1` [Compound 45, 6-[4-(6-bromo-1H-benzoimidazol-2-yl)-phenyl]-5-chloro-nicotinic acid], 3.3%.
Same read-out and setting: as for `OCc1cnc(-c2ccc(-c3nc4c(Br)cc(Br)cc4[nH]3)cc2)c(Cl)c1` [Compound 33, {5-chloro-6-[4-(4,6-dibromo-1H-benzoimidazol-2-yl)-phenyl]-pyridin-3-yl}-methanol], the figure is 4.7%.
For `C=Cc1cnc(-c2ccc(-c3nc4ccc(Br)cc4[nH]3)nc2)c(Cl)c1` [Compound 68, 6′-(6-bromo-1H-benzoimidazol-2-yl)-3-chloro-5-vinyl-[2,3′]bipyridinyl], the inhibition at 0.2 µM was -2.2%.
